According to US12378188B2, “Waterborne crosslinker composition” (priority 2020, dated 2025):

Experiments:
Rtkn = assay: ToxTracker genotoxicity assay, Rtkn GFP reporter; conditions: fold induction vs vehicle control
[1] = described in U.S. Pat. No. 5,133,997; cited from earlier work
[2] = Storage stability of the crosslinker dispersion (gelling / coagulation); conditions: dispersion pH 11 with TEA, Maxemul 7101
Procedure: Functional performance and stability of the crosslinker dispersion were assessed using spot tests on coating surfaces, based on procedures from the DIN 68861-1 standard, and viscosity measurements using a Brookfield DVE-LV viscometer (S62 spindle at 60 rpm unless mentioned otherwise). For these tests, the crosslinker dispersion was stored in an oven at 50° C. for 4 weeks. Every week, the viscosity of the crosslinker dispersion was determined. […] This coating composition was filtered and applied to Leneta test cards using 100 μm wire rod applicators (Test 1). For reference, films were also cast from the same composition lacking the crosslinker dispersion (Test Blank). The films were dried for 1 hour at 25° C., then annealed at 50° C. for 16 hours. Subsequently, a piece of cotton wool was soaked in 1:1 EtOH: demineralized water and placed on the film for 1 hour.

CCCCOCC(CN1CC1)OC(=O)NCCCCCCn1c(=O)n(CCCCCCNC(=O)OC(COCCCC)CN2CC2)c(=O)n(CCCCCCNC(=O)OC(COCCCC)CN2CC2)c1=O (stereo not drawn) [Composition 1]
Rtkn GFP reporter induction level (Rtkn; With S9 rat liver extract, at 10% cytotoxicity, 3 h exposure and 24 h recovery): 1.0
Rtkn GFP reporter induction level (Rtkn; With S9 rat liver extract, at 25% cytotoxicity, 3 h exposure and 24 h recovery): 1.1
Rtkn GFP reporter induction level (Rtkn; With S9 rat liver extract, at 50% cytotoxicity, 3 h exposure and 24 h recovery): 1.1
Rtkn GFP reporter induction level (Rtkn; Without S9 rat liver extract, at 10% cytotoxicity, 24 h exposure): 1.0
Rtkn GFP reporter induction level (Rtkn; Without S9 rat liver extract, at 25% cytotoxicity, 24 h exposure): 1.0
Rtkn GFP reporter induction level (Rtkn; Without S9 rat liver extract, at 50% cytotoxicity, 24 h exposure): 0.9

O=C(CCN1CC1)OCC(CO)(COC(=O)CCN1CC1)COC(=O)CCN1CC1 [XAMA-7]
Stability in water [1]: unstable in water

O=C(NCCCCCCn1c(=O)n(CCCCCCNC(=O)OCCN2CC2)c(=O)n(CCCCCCNC(=O)OCCN2CC2)c1=O)OCCN1CC1 [Example C4]
Storage stability of dispersion [2]: a storage stable dispersion was not obtained
Time until severe coagulation was observed after preparation of the dispersion [2]: ≤ 4 h
